The supplement of paper PMC10307832

Key:
Test in all cases: relative viability (nuclei count vs DMSO), 5 days (fraction); higher = more cells survive
[1] = compound: CC1=CC=C(C=C1)C(=O)CN2C3=C(CCCC3)SC2=N [Pifithrin_alpha] + C[C@]1(O)C[C@@H](c2nc(-c3ccc4ccc(-c5ccccc5)nc4c3)c3c(N)nccn32)C1 [Linsitinib] (partner 1 µM)
In short: (§1)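 Five library-drug doses in √10 steps were combined with a fixed anchor-drug dose, or a single drug was given alone, by pin tool to lung cancer cell lines in 1536-well plates the day after seeding. Nuclei were stained and counted after 5 days. Relative viability is the nuclei count in treated wells over that in vehicle wells, taken as the median of duplicate plates.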

[2] = compound: CC1=CC=C(C=C1)C(=O)CN2C3=C(CCCC3)SC2=N [Pifithrin_alpha] + O=C(c1cc(Cc2n[nH]c(=O)c3ccccc23)ccc1F)N1CCN(C(=O)C2CC2)CC1 [Olaparib] (partner 8 µM)
In short: as §1

[3] = compound: CC1=CC=C(C=C1)C(=O)CN2C3=C(CCCC3)SC2=N [Pifithrin_alpha] + C[C@@H](Oc1cc(-c2cnn(C3CCNCC3)c2)cnc1N)c1c(Cl)ccc(F)c1Cl [Crizotinib] (partner 1 µM)
In short: as §1

[4] = compound: CC1=CC=C(C=C1)C(=O)CN2C3=C(CCCC3)SC2=N [Pifithrin_alpha] + Cc1nc(NC(=O)N2CCC[C@H]2C(N)=O)sc1-c1ccnc(C(C)(C)C(F)(F)F)c1 [Alpelisib] (partner 2 µM)
In short: as §1

Cell Line | relative viability ([1]; first compound 1 µM) | relative viability ([1]; first compound 3.162 µM) | relative viability ([1]; first compound 10 µM) | relative viability ([1]; first compound 31.62 µM) | relative viability ([1]; first compound 100 µM) | relative viability ([2]; first compound 1 µM) | relative viability ([2]; first compound 3.162 µM) | relative viability ([2]; first compound 10 µM) | relative viability ([2]; first compound 31.62 µM) | relative viability ([2]; first compound 100 µM) | relative viability ([3]; first compound 1 µM) | relative viability ([3]; first compound 3.162 µM) | relative viability ([3]; first compound 10 µM) | relative viability ([3]; first compound 31.62 µM) | relative viability ([3]; first compound 100 µM) | relative viability ([4]; first compound 1 µM) | relative viability ([4]; first compound 3.162 µM) | relative viability ([4]; first compound 10 µM) | relative viability ([4]; first compound 31.62 µM) | relative viability ([4]; first compound 100 µM)
HCC-44 | 0.571 | 0.607 | 0.64 | 0.441 | 0.578 | 0.918 | 0.877 | 0.818 | 0.553 | 0.627 | 0.816 | 0.742 | 0.647 | 0.515 | 0.65 | 0.681 | 0.699 | 0.715 | 0.453 | 0.591
HCC-78 | 0.481 | 0.54 | 0.513 |  | 0.584 |  | 0.925 | 0.785 | 0.51 | 0.683 | 0.319 | 0.289 | 0.321 |  | 0.321 | 0.295 | 0.337 | 0.352 |  | 0.296
HCC-366 | 0.512 | 0.508 | 0.581 |  | 0.469 | 0.344 | 0.238 | 0.299 |  | 0.209 | 0.812 | 0.517 | 0.418 |  | 0.198 | 0.282 | 0.3 | 0.329 |  | 0.234
HCC-827 | 0.942 | 0.96 | 0.91 | 0.589 | 0.841 | 0.248 | 0.672 | 0.715 | 0.355 | 0.648 | 0.87 | 0.928 | 0.875 | 0.693 | 0.82 | 0.878 | 1.03 | 0.919 | 0.626 | 0.823
HOP-62 | 1.01 | 0.979 | 1.18 | 0.781 | 1.07 | 0.524 | 0.635 | 0.446 | 0.127 | 0.65 | 0.97 | 1.14 | 0.848 | 0.645 | 1.04 | 1.18 | 1.1 | 0.848 | 0.62 | 0.931
IA-LM | 0.784 | 0.554 | 0.272 | 0.501 | 0.267 | 0.758 | 0.699 | 0.332 | 0.192 | 0.271 | 0.652 | 0.622 | 0.705 | 0.463 | 0.433 | 0.917 | 0.757 | 0.356 | 0.442 | 0.423
LC-2-ad | 0.849 | 0.846 | 0.804 | 0.547 | 0.767 | 0.756 | 0.739 | 0.683 | 0.444 | 0.555 |  | 0.505 | 0.425 |  | 0.473 | 0.898 | 0.799 | 0.791 | 0.56 | 0.682
LCLC-97TM1 |  | 0.207 | 0.206 |  | 0.225 |  | 0.39 | 0.33 |  | 0.289 |  | 0.45 | 0.277 |  | 0.306 |  | 0.226 | 0.224 |  | 0.236
LCLC-103H | 0.915 | 0.954 | 1.09 | 0.986 | 1.18 | 0.772 | 0.817 | 0.644 | 0.52 | 0.686 | 1.06 | 1.04 | 1.01 | 0.897 | 1.07 | 0.971 | 0.992 | 1.1 | 0.931 | 0.939
